Source: publication PMC8378262 (Journal of controlled release : official journal of the …, 2021)

Tested on: Sprague Dawley rats
Assay: Mean systemic arterial pressure
Format: in vivo
Conditions: healthy rats, intravenous 3 mg/kg

Compound	change in mSAP (until 6 h after injection)	duration of the reduction in mSAP after injection	maximum reduction of mSAP from baseline (within 30 min)
O=[N+]([O-])c1ccc(COc2nccc3c(S(=O)(=O)N4CCCNCC4)cccc23)cc1 [FasPRO, 5-((1,4-diazepan-1-yl)sulfonyl)-1-((4-nitrobenzyl)oxy)isoquinoline]	did not produce any changes in mSAP		
O=S(=O)(c1cccc2cnccc12)N1CCCNCC1 [Fasudil, reference compound]		90 min	38.6±8.4%
